Measured values: patent US8829007B2 (priority 2009, dated 2014)
Counter-ions that a name gives are not always drawn. Like-named read-outs stand apart in the source and are kept apart here.

Experiments:
[1] = system: influenza A virus (A/PR/8/34); assay: microbe, parasite or virus in culture; type: cell-based
[2] = system: A/PR/8/34 influenza virus; assay: microbe, parasite or virus in culture; type: cell-based
[3] = Influenza A virus, PR/8, MDCK, MDCK cells infected with A/PR/8/34, cell protection (CPE), read-out: IC50 (mean all)
[4] = Influenza A virus, PR/8, MDCK, MDCK cells infected with A/PR/8/34, bDNA viral RNA, read-out: EC50 (mean all)
[5] = CPE assay, A/PR/8/34 infected MDCK cells, class symbols, read-out: IC50 (mean all)
[6] = bDNA assay, A/PR/8/34 influenza virus replication in MDCK cells, class symbols, read-out: EC50 (mean all)
[7] = Influenza A virus, PR/8, MDCK, mean all, A/PR/8/34 infected MDCK cells, CPE assay, read-out: IC50
[8] = Influenza A virus, PR/8, MDCK, mean all, A/PR/8/34 influenza virus in MDCK cells, bDNA assay, read-out: EC50
[9] = Influenza A virus, PR/8, MDCK, MDCK cells infected with A/PR/8/34, survival of infected cells, class symbols, read-out: IC50 (mean all)
[10] = Influenza A virus, PR/8, MDCK, MDCK cells infected with A/PR/8/34, replication of influenza virus (viral RNA, bDNA), class symbols, read-out: EC50 (mean all)
[11] = Influenza A virus, PR/8, MDCK, CPE assay, A/PR/8/34 infected MDCK cells, class symbols, read-out: IC50 (mean all)
[12] = Influenza A virus, PR/8, MDCK, bDNA assay, A/PR/8/34 influenza virus replication in MDCK cells, class symbols, read-out: EC50 (mean all)

Compound: COc1ccc(C(=O)N2CCC[C@H](CNc3nc(-c4c[nH]c5ncc(Cl)cc45)ncc3F)C2)cc1OC [Compound 109, (R)-(3-((2-(5-chloro-1H-pyrrolo[2,3-b]pyridin-3-yl)-5-fluoropyrimidin-4-ylamino)methyl)piperidin-1-yl)(3,4-dimethoxyphenyl)methanone]
- IC50 [1, 3]: < 5 µM
- EC50 [2, 4]: < 5 µM

Compound: O=C(CC1CCCC1)N1CCC[C@H](CNc2nc(-c3c[nH]c4ncc(Cl)cc34)ncc2F)C1 [Compound 100, (R)-1-(3-((2-(5-chloro-1H-pyrrolo[2,3-b]pyridin-3-yl)-5-fluoropyrimidin-4-ylamino)methyl)piperidin-1-yl)-2-cyclopentylethanone]
- IC50 [1, 3]: < 5 µM
- EC50 [2, 4]: < 5 µM

Compound: COC(=O)NC(=O)N1CCC[C@H](CNc2nc(-c3c[nH]c4ncc(Cl)cc34)ncc2F)C1 [Compound 131, (R)-methyl 3-((2-(5-chloro-1H-pyrrolo[2,3-b]pyridin-3-yl)-5-fluoropyrimidin-4-ylamino)methyl)piperidine-1-carbonylcarbamate]
- IC50 [1, 3]: < 5 µM
- EC50 [2, 4]: < 5 µM

Compound: Fc1cnc(-c2c[nH]c3ncc(Cl)cc23)nc1NC1CCCN(CC2CCOCC2)C1 (centres unmarked) [Compound 621]
- IC50 [1, 5]: < 5 µM
- EC50 [2, 6]: < 5 µM

Compound: CCCCS(=O)(=O)N1CCC[C@H](Nc2nc(-c3c[nH]c4ncc(Cl)cc34)ncc2F)C1 [Compound 390, (S)—N-(1-(butylsulfonyl)piperidin-3-yl)-2-(5-chloro-1H-pyrrolo[2,3-b]pyridin-3-yl)-5-fluoropyrimidin-4-amine]
- IC50 [1, 7]: < 5 µM
- EC50 [2, 8]: < 5 µM

Compound: CC(=O)NC[C@]1(O)CCC[C@H](Nc2nc(-c3c[nH]c4ncc(Cl)cc34)ncc2F)C1 [Compound 857]
- IC50 ([1]; Influenza A virus, PR/8, MDCK, mean all, A/PR/8/34 infected MDCK cells, cell protection (CPE), read-out: IC50): < 5 µM
- EC50 ([2]; Influenza A virus, PR/8, mean all, A/PR/8/34 influenza virus replication, bDNA, read-out: EC50): < 5 µM

Compound: CC(C)C(=O)N1CCOCC1CNc1nc(-c2c[nH]c3ncc(Cl)cc23)ncc1F (centres unmarked) [Compound 529, 1-(3-((2-(5-chloro-1H-pyrrolo[2,3-b]pyridin-3-yl)-5-fluoropyrimidin-4-ylamino)methyl)morpholino)-2-methylpropan-1-one]
- IC50 [1, 9]: 5 to 20 µM
- EC50 [2, 10]: > 10 µM

Compound: O=S(=O)(CC1CCCC1)N1CCC[C@H](Nc2nc(-c3c[nH]c4ncc(Cl)cc34)ncc2F)C1 [Compound 392, (S)-2-(5-chloro-1H-pyrrolo[2,3-b]pyridin-3-yl)-N-(1-(cyclopentylmethylsulfonyl)piperidin-3-yl)-5-fluoropyrimidin-4-amine]
- IC50 [1, 7]: < 5 µM
- EC50 [2, 8]: < 5 µM

Compound: CN(C)C(=O)N[C@@H]1CCCC[C@H]1CNc1nc(-c2c[nH]c3ncc(Cl)cc23)ncc1F (relative stereo) [Compound 564, 3-(trans-2-((2-(5-chloro-1H-pyrrolo[2,3-b]pyridin-3-yl)-5-fluoropyrimidin-4-ylamino)methyl)cyclohexyl)-1,1-dimethylurea]
- IC50 [1, 9]: > 10 µM
- EC50 [2, 10]: < 5 µM

Compound: O=C1NCCC[C@@H]1Nc1nc(-c2c[nH]c3ncc(Cl)cc23)ncc1F [Compound 416]
- IC50 [1, 7]: < 5 µM
- EC50 [2, 8]: < 5 µM

Compound: CS(=O)(=O)N[C@H]1CCCC[C@@H]1Nc1nc(-c2c[nH]c3ncc(Cl)cc23)ncc1F [Compound 428, N-[(1S,2S)-2-[[2-(5-chloro-1H-pyrrolo[2,3-b]pyridin-3-yl)-5-fluoro-pyrimidin-4-yl]amino]cyclohexyl]methanesulfonamide]
- IC50 ([1]; Influenza A virus, PR/8, MDCK, exemplary values in text, survival of A/PR/8/34 infected cells, read-out: IC50): 0.03 µM
- IC50 [1, 7]: < 5 µM
- EC50 [2, 8]: < 5 µM

Compound: CC1(O)CCCCC1Nc1nc(-c2c[nH]c3ncc(Cl)cc23)ncc1F (single isomer, unassigned) [Compound 563, 2-(2-(5-chloro-1H-pyrrolo[2,3-b]pyridin-3-yl)-5-fluoropyrimidin-4-ylamino)-1-methylcyclohexanol]
- IC50 [1, 9]: < 5 µM
- EC50 [2, 10]: < 5 µM

Compound: COC(=O)N[C@H]1CCCC[C@@H]1Nc1nc(-c2c[nH]c3ncc(Cl)cc23)ncc1F [Compound 425, Methyl N-[(1S,2S)-2-[[2-(5-chloro-1H-pyrrolo[2,3-b]pyridin-3-yl)-5-fluoro-pyrimidin-4-yl]amino]cyclohexyl]carbamate]
- IC50 [1, 7]: < 5 µM
- EC50 [2, 8]: < 5 µM

Compound: O=C(N[C@@H]1CCC[C@H](Nc2nc(-c3c[nH]c4ncc(Cl)cc34)ncc2F)C1)C1CCOC1 (stereo partly drawn) [Compound 652, N-[(1R,3S)-3-[[2-(5-chloro-1H-pyrrolo[2,3-b]pyridin-3-yl)-5-fluoro-pyrimidin-4-yl]amino]cyclohexyl]tetrahydrofuran-3-carboxamide hydrochloride]
- IC50 [1, 11]: < 5 µM
- EC50 [2, 12]: < 5 µM

Compound: O[C@H]1[C@@H](O)CCC[C@H]1Nc1nc(-c2c[nH]c3ncc(Cl)cc23)ncc1F [Compound 631]
- IC50 [1, 11]: < 5 µM
- EC50 [2, 12]: < 5 µM

Compound: O=S(=O)(C1CC1)N1CCC[C@H](Nc2nc(-c3c[nH]c4ncc(Cl)cc34)ncc2F)C1 [Compound 391, (S)-2-(5-chloro-1H-pyrrolo[2,3-b]pyridin-3-yl)-N-(1-(cyclopropylsulfonyl)piperidin-3-yl)-5-fluoropyrimidin-4-amine]
- IC50 [1, 7]: < 5 µM
- EC50 [2, 8]: < 5 µM

Compound: COCCC(=O)N1CCC[C@H](Nc2nc(-c3c[nH]c4ncc(Cl)cc34)ncc2F)C1 [Compound 396]
- IC50 [1, 7]: < 5 µM
- EC50 [2, 8]: < 5 µM

Compound: COC1CCCCC1Nc1nc(-c2c[nH]c3ncc(Cl)cc23)ncc1F (centres unmarked) [Compound 412, 2-(5-chloro-1H-pyrrolo[2,3-b]pyridin-3-yl)-5-fluoro-N-(2-methoxycyclohexyl)-pyrimidin-4-amine]
- IC50 [1, 7]: < 5 µM
- EC50 [2, 8]: < 5 µM

Compound: (R)—N-cyclopropyl-2-((5-fluoro-2-(1H-pyrrolo[2,3-b]pyridin-3-yl)pyrimidin-4-ylamino)-methyl)piperidine-1-carboxamide [Compound 372]
- IC50 ([1]; read-out: IC50): 5 to 20 µM
- EC50 ([2]; mean all, A/PR/8/34 influenza virus in MDCK cells, bDNA assay, read-out: EC50): 5 to 10 µM

Compound: O=C(c1cccs1)N1CCC[C@H](CNc2nc(-c3c[nH]c4ncc(Cl)cc34)ncc2F)C1 [Compound 97, (R)-(3-((2-(5-chloro-1H-pyrrolo[2,3-b]pyridin-3-yl)-5-fluoropyrimidin-4-ylamino)methyl)piperidin-1-yl)(thiophen-2-yl)methanone]
- IC50 [1, 3]: < 5 µM
- EC50 [2, 4]: < 5 µM

Compound: O=C(OCCCl)N1CCCC[C@H]1CNc1nc(-c2c[nH]c3ncc(Cl)cc23)ncc1F [Compound 163, (S)-2-chloroethyl 2-((2-(5-chloro-1H-pyrrolo[2,3-b]pyridin-3-yl)-5-fluoropyrimidin-4-ylamino)methyl)piperidine-1-carboxylate]
- IC50 [1, 3]: 5 to 20 µM
- EC50 [2, 4]: < 5 µM

Compound: NC1CCCC(Nc2nc(-c3c[nH]c4ncc(Cl)cc34)ncc2F)C1 (stereo not drawn) [Compound 540, N-[2-(5-chloro-1H-pyrrolo[5,4-b]pyridin-3-yl)-5-fluoro-pyrimidin-4-yl]cyclohexane-cis-1,3-diamine]
- IC50 [1, 9]: < 5 µM
- EC50 [2, 10]: < 5 µM

Compound: O=C(NCC1CC1)C1CCCC(Nc2nc(-c3c[nH]c4ncc(Cl)cc34)ncc2F)C1 (centres unmarked) [Compound 719]
- IC50 ([1]; mean all, MDCK cells infected with A/PR/8/34, cell protection (CPE), read-out: IC50): < 5 µM
- EC50 ([2]; mean all, bDNA viral RNA in MDCK cells infected with A/PR/8/34, read-out: EC50): < 5 µM

Compound: O=C1NCC(CN2CCCC(Nc3nc(-c4c[nH]c5ncc(Cl)cc45)ncc3F)C2)O1 (centres unmarked) [Compound 619]
- IC50 [1, 5]: < 5 µM
- EC50 [2, 6]: < 5 µM

Compound: CCC(=O)N1CCCC[C@@H]1CNc1nc(-c2c[nH]c3ncc(Cl)cc23)ncc1F [Compound 208, (R)-1-(2-((2-(5-chloro-1H-pyrrolo[2,3-b]pyridin-3-yl)-5-fluoropyrimidin-4-ylamino)methyl)piperidin-1-yl)propan-1-one]
- IC50 [1, 3]: < 5 µM
- EC50 [2, 4]: < 5 µM

Compound: O=C(O)[C@H]1CC[C@@H](Nc2nc(-c3c[nH]c4ncc(Cl)cc34)ncc2F)C1 [Compound 565]
- IC50 [1, 9]: 5 to 20 µM
- EC50 [2, 10]: < 5 µM
